Results from patent publication US12364722B2, “Multifunctional lactobacillus capable of relieving PFOA toxic effects and application thereof” (priority 2019, dated 2025).

Tested on: mice with constipation
Experiment: Loperamide constipation model: fecal water content and first black stool defecation time
Assay type: in vivo, BALB/c mice
Conditions: loperamide 10 mg/kgBW constipation, vs model group
Description: 40 SPF male BALB/c mice (20-25 g) were randomly divided into 5 groups: a blank control group, a constipation model control group, a Lactobacillus fermentum CCFM1051 intervention group, a Lactobacillus plantarum control group and a phenolphthalein treatment group with 10 mice in each group. The freeze-dried Lactobacillus fermentum CCFM1051 powder was resuspended in skim milk powder to prepare a bacterial suspension with a concentration of 4.0×10^9 CFU/mL. […] The fecal water content was calculated by using the following formula: Fecal water content (%)=(wet weight of feces−dry weight of feces)/wet weight of feces×100. On the morning of the 17th day, the mice in the blank control group were gavaged with normal saline, the mice in the other groups were gavaged with loperamide, after the gavage for 1 h, all the mice were gavaged with 0.25 mL of an activated carbon arabic gum aqueous solution, each mouse was separately placed in a clean stainless steel cage covered with absorbent paper, time (min) from start of the gavage with the activated carbon to defecation of first black stool was recorded as first black stool defecation time to evaluate an effect of the Lactobacillus fermentum CCFM1051 on constipation of the mice, and during the period, the mice ate and drank freely.

Compound: O=C1OC(c2ccc(O)cc2)(c2ccc(O)cc2)c2ccccc21 [phenolphthalein]
- first black stool defecation time (activated carbon gavage): significantly shortened
- fecal water content: extremely significantly increased
